According to PubChem BioAssay (NCI):
Where “and” joins values, the source holds several entries; their conditions need not be identical. Identical values can stand only once.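 Compound exposure: 48 hours, 5 concentrations, 96-well plates. GI50 = concentration required for 50% inhibition of growth. Definition used: TGI = concentration required for complete inhibition of growth.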

Columns and labels:
Experiment in all cases: DTP human tumour cell line panel, 48 h
OVCAR-3 ovarian = system: OVCAR-3 ovarian
SR leukemia = system: SR leukemia
CCRF-CEM leukemia = system: CCRF-CEM leukemia
OVCAR-4 ovarian = system: OVCAR-4 ovarian
HOP-62 NSCLC = system: HOP-62 NSCLC
MOLT-4 leukemia = system: MOLT-4 leukemia
EKVX NSCLC = system: EKVX NSCLC
HCT-15 colon = system: HCT-15 colon
IGROV1 ovarian = system: IGROV1 ovarian
PC-3 prostate = system: PC-3 prostate

| Structure (SMILES) | TGI (OVCAR-3 ovarian) | TGI (SR leukemia) [µM] | TGI (CCRF-CEM leukemia) [µM] | TGI (OVCAR-4 ovarian) [µM] | TGI (HOP-62 NSCLC) [µM] | TGI (MOLT-4 leukemia) [µM] | TGI (EKVX NSCLC) [µM] | TGI (HCT-15 colon) | GI50 (OVCAR-3 ovarian) | GI50 (CCRF-CEM leukemia) [µM] | GI50 (OVCAR-4 ovarian) | GI50 (IGROV1 ovarian) | TGI (IGROV1 ovarian) | GI50 (HOP-62 NSCLC) [µM] | GI50 (MOLT-4 leukemia) [µM] | GI50 (EKVX NSCLC) [µM] | GI50 (HCT-15 colon) | TGI (PC-3 prostate) [µM] | GI50 (PC-3 prostate) [µM] |
| --- | --- | --- | --- | --- | --- | --- | --- | --- | --- | --- | --- | --- | --- | --- | --- | --- | --- | --- | --- |
| Cc1nc2c(n1-c1ccccc1)C(=O)c1ccccc1C2=O | 54.1 µM | > 100 | > 100 | > 100 | > 100 | > 100 | > 100 | > 100 µM |  |  |  |  |  |  |  |  |  |  |  |
| CS(=O)(=O)[O-].CS(=O)(=O)[O-].NC1CCCCC1N.[Pt+4] (configuration not stated) | > 100 µM |  | > 100 | > 100 | > 100 | > 100 | > 100 | > 100 µM | > 100 µM | 40.2 | > 100 µM | > 69.4 µM | > 100 µM | > 100 | 29 | > 100 | > 100 µM |  |  |
| Cc1c(C#N)c(=N)oc2ccccc12 | > 100 µM |  |  | > 100 | > 100 | > 100 | > 100 | > 100 µM |  |  |  |  | > 100 µM |  |  |  |  | > 100 |  |
| COc1ccc(NC(=O)CC(=O)N2N=C(N(c3ccccc3)c3ccccc3)CC2c2ccccc2)cc1 (configuration not stated) | > 100 µM |  | > 100 | > 100 | > 100 | > 100 | > 100 | > 100 µM |  |  |  |  | > 100 µM |  |  |  |  | > 100 |  |
| NC(=S)NNC(=S)NC(=O)c1ccco1 | > 10 µM | > 10 | > 10 | > 10 | > 10 | > 10 | > 10 | > 10 µM |  |  |  |  | > 10 µM |  |  |  |  |  |  |
| CC1CN=C(c2ccc(CN3CCC(C4CCN(Cc5ccc(C6=NCC(C)N6)cc5)CC4)CC3)cc2)N1 (configuration not stated) | 44.5 µM |  | 38.2 | 38.8 | 30.9 | 46.5 | 47.2 | 94.7 µM |  |  |  |  | > 100 µM |  |  |  |  | 35.8 |  |
| CCC1(OC(=O)CN)C(=O)OCc2c1cc1n(c2=O)Cc2cc3cc4c(cc3nc2-1)OCO4 (configuration not stated) | 1.05 µM and 0.554 µM |  |  |  | < 0.01 | 0.0113 | 0.495 | 26.8 µM and 10.2 µM | 0.196 µM and 0.131 µM | < 0.01 | 0.216 µM and 0.0574 µM | 0.0975 µM and 0.0367 µM | 1.55 µM and 0.527 µM | < 0.01 | < 0.01 | 0.0106 | 0.126 µM and 0.0483 µM |  |  |
| C/C(=N/NC(=S)N1CCN(C(=S)N/N=C(/C)c2ccccn2)CC1)c1ccccn1 | > 100 µM |  | > 100 | > 100 | > 67.9 | > 100 | > 100 | > 100 µM |  |  |  |  | > 100 µM |  |  |  |  | > 100 |  |
| Cn1c(=O)n(CC2CS2)c2ccccc21 (configuration not stated) | > 100 µM | > 100 | > 100 | > 100 | > 100 | > 100 | > 100 | > 100 µM |  |  |  |  | > 100 µM |  |  |  |  |  |  |
| C[PH+](c1nc2ccccc2nc1[PH+](C)C(C)(C)C)C(C)(C)C.C[PH+](c1nc2ccccc2nc1[PH+](C)C(C)(C)C)C(C)(C)C.[Au+].[Cl-] (configuration not stated) |  |  | 1.5 | 0.77 |  |  |  |  |  | 0.0603 | 0.0349 µM |  |  |  |  |  |  | 0.144 | 0.0286 |
| COC(=O)c1cc(C)ccc1C1CN=NC12Cc1c(C)cc(C)cc1C2=O (configuration not stated) | 75.5 µM |  | 86.5 | 80 | > 100 | 56.2 | > 100 | 69.1 µM |  |  |  |  | > 100 µM |  |  |  |  | > 100 |  |
| O=C(O)Cc1ccccc1CCc1ccccc1Cl | > 100 µM | > 100 | > 100 | > 100 |  | > 100 | > 100 | > 100 µM |  |  |  |  | > 100 µM |  |  |  |  |  |  |
| NC1c2c(Cl)sc(Cl)c2C(=O)C1O (configuration not stated) | > 100 µM |  | 37.7 | 50.4 |  | 57.5 | 57.6 | 30.1 µM |  |  |  |  | > 100 µM |  |  |  |  | > 100 |  |
| C[C@]12CCC(=O)C=C1CC[C@@H]1[C@@H]2[C@@H](O)C[C@@]2(C)[C@H]1CC[C@]2(O)C(=O)COC(=O)CCC1CCCC1 | > 100 µM | > 100 | > 100 |  |  | > 100 | > 100 | > 100 µM |  |  |  |  | > 100 µM |  |  |  |  |  |  |
| COc1ccccc1NC(=S)N/N=C/c1ccccn1 |  |  | > 23.1 | > 100 | 25.6 |  | 5.08 | 29 µM |  |  |  |  |  |  |  |  |  | > 46.4 |  |
| CCN(CC)/[N+]([O-])=N/O | > 100 µM | > 100 | > 100 |  | > 100 | > 100 | > 100 | > 100 µM |  |  |  |  | > 100 µM |  |  |  |  |  |  |
| Cc1ccc(/C=C2/NC(=S)SC2=O)cc1 | > 100 µM |  |  | > 100 | > 100 | > 100 | > 100 | 85.6 µM |  |  |  |  | > 100 µM |  |  |  |  | > 100 |  |
| COc1cc(CNC(=S)CCCCCCCCCCC(C)C)ccc1O |  | > 100 | > 100 | > 100 | > 100 | > 100 | > 100 | > 100 µM |  |  |  |  | > 100 µM |  |  |  |  |  |  |
| O=c1c2cc(Br)ccc2ncn1COCc1ccccc1 | > 100 µM | > 100 | > 100 | > 100 |  | > 100 | > 100 | > 100 µM |  |  |  |  | > 100 µM |  |  |  |  |  |  |
| O=c1c(O)cccn1C1OC(CO)C(O)C1O (configuration not stated) |  |  | > 100 | > 100 |  |  | > 100 | > 100 µM |  |  |  |  | > 100 µM |  |  |  |  |  |  |
